Experimental data published in US11434249B1, “ASK1 inhibitor compounds and uses thereof” (Seal Rock Therapeutics, Inc., priority 2018, dated 2022).
pIC50: −log10 of the molar value.

Each molecule was assayed against ASK1 (Homo sapiens (Human), UniProt Q99683) (assay: ASK1 Kinase Assay (Promega ASK1 Kinase Enzyme System, ADP-Glo luminescence)). Details: at 10 μM compound; enzyme 50 nM, ATP 10 μM.
ASK1, sequence (Q99683 whole entry): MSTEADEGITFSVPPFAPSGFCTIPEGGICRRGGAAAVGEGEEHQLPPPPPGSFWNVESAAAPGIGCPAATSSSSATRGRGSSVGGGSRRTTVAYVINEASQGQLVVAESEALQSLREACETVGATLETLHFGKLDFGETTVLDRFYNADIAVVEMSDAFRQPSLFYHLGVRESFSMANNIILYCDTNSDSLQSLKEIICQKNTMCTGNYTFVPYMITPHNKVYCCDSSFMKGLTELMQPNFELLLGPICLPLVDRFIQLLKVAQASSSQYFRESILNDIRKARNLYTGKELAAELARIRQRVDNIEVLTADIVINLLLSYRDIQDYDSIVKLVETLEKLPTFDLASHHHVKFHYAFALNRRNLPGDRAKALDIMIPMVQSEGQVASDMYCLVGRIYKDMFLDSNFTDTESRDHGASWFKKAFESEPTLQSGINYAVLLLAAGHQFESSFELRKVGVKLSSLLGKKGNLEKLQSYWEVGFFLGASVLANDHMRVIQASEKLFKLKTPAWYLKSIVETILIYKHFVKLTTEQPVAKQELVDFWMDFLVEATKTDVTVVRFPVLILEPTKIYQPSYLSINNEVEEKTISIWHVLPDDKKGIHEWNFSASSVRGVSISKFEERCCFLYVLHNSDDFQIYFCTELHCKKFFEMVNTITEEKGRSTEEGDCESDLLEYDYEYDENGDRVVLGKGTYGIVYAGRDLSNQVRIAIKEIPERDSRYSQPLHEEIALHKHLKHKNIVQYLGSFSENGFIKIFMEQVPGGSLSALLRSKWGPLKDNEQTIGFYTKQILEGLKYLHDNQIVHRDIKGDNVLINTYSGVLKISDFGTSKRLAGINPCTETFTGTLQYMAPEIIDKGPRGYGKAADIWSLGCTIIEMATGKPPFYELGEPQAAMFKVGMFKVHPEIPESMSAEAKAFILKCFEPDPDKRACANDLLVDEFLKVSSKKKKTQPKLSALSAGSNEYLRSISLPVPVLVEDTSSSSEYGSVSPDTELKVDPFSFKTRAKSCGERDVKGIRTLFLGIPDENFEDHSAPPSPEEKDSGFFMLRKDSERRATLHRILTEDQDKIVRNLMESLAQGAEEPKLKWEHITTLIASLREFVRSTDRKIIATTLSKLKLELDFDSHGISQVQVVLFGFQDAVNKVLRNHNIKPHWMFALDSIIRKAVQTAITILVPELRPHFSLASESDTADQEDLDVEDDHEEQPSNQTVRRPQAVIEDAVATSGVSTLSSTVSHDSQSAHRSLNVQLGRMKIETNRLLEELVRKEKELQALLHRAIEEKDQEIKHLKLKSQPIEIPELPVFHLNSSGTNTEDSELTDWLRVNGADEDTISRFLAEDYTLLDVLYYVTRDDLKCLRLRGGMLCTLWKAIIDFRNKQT
Assay type: biochemical
Experimental: The ASK1 enzymatic assay was run following Promega ASK1 Kinase Enzyme System (Cat #V3881). The kit provides the protocol, enzymes and all reagents necessary to run an assay.
The compounds, enzyme, substrate and ATP were diluted in provided assay buffer. The final concentration of the enzyme was 50 nM, substrate (Myelin basic protein) 1 μg/mL and ATP 10 μM. The compound and the enzyme were pre-incubated in a 384-well white solid bottom plate (Greiner, Cat #784075) for 10 minutes. After incubation, the substrate and ATP were added and incubated for an additional 60 minutes. After 60 minutes, ADP-Glo™ was added and the plate was incubated for another 40 minutes. After 40 minutes, Kinase Detection Reagent was added and the plate was incubated for 45 minutes. After 45 minutes, the plate was read on a Perkin Elmer EnVision using luminescence read (0.5 seconds/well).
Molecule `O=C1c2scc(-c3ccccc3)c2CN1c1cccc(-c2nncn2C2CC2)n1` [Example 7, 5-(6-(4-cyclopropyl-4H-1,2,4-triazol-3-yl)pyridin-2-yl)-3-phenyl-4,5-dihydro-6H-thieno[2,3-c]pyrrol-6-one] has an inhibition at 10 µM of 45%.

Same assay, conditions: enzyme 50 nM, Myelin basic protein 1 μg/mL, ATP 10 μM
`O=C1c2sccc2CN1c1cccc(-c2nncn2C2CC2)n1` [Example 1, 5-(6-(4-Cyclopropyl-4H-1,2,4-triazol-3-yl)pyridin-2-yl)-4,5-dihydro-6H-thieno[2,3-c]pyrrol-6-one] showed a pIC50 greater than 6.00. In the case of `CC(=O)c1ccccc1-c1cc2c(s1)C(=O)N(c1cccc(-c3nncn3C3CC3)n1)C2` [Example 2, 2-(2-Acetylphenyl)-5-(6-(4-cyclopropyl-4H-1,2,4-triazol-3-yl)pyridin-2-yl)-4,5-dihydro-6H-thieno[2,3-c]pyrrol-6-one], the pIC50 was greater than 6.00. With `O=C1c2sc(C3CCOCC3)cc2CN1c1cccc(-c2nncn2C2CC2)n1` [Example 4, 5-(6-(4-cyclopropyl-4H-1,2,4-triazol-3-yl)pyridin-2-yl)-2-(tetrahydro-2H-pyran-4-yl)-4,5-dihydro-6H-thieno[2,3-c]pyrrol-6-one] the pIC50 was greater than 6.00. Work on `Cc1cc2c(s1)C(=O)N(c1cccc(-c3nncn3C3CC3)n1)C2` [Example 5, 5-(6-(4-cyclopropyl-4H-1,2,4-triazol-3-yl)pyridin-2-yl)-2-methyl-4,5-dihydro-6H-thieno[2,3-c]pyrrol-6-one] yielded a pIC50 greater than 6.00. `CCc1cc2c(s1)C(=O)N(c1cccc(-c3nncn3C3CC3)n1)C2` [Example 6, 5-(6-(4-cyclopropyl-4H-1,2,4-triazol-3-yl)pyridin-2-yl)-2-ethyl-4,5-dihydro-6H-thieno[2,3-c]pyrrol-6-one] showed a pIC50 greater than 6.00. In the case of `Cc1csc2c1CN(c1cccc(-c3nncn3C3CC3)n1)C2=O` [Example 9, 5-(6-(4-cyclopropyl-4H-1,2,4-triazol-3-yl)pyridin-2-yl)-3-methyl-4,5-dihydro-6H-thieno[2,3-c]pyrrol-6-one], the pIC50 was greater than 6.00. For `O=C1c2scc(Br)c2CN1c1cccc(-c2nncn2C2CC2)n1` [Example 10, 3-bromo-5-(6-(4-cyclopropyl-4H-1,2,4-triazol-3-yl)pyridin-2-yl)-4,5-dihydro-6H-thieno[2,3-c]pyrrol-6-one], the pIC50 was greater than 6.00. For `CC(C)CNc1csc2c1CN(c1cccc(-c3nncn3C3CC3)n1)C2=O` [Example 11, 5-(6-(4-cyclopropyl-4H-1,2,4-triazol-3-yl)pyridin-2-yl)-3-(isobutylamino)-4,5-dihydro-6H-thieno[2,3-c]pyrrol-6-one], the pIC50 was 5.00 to 6.00. `O=C1c2sc3ccccc3c2CN1c1cccc(-c2nncn2C2CC2)n1` [Example 12, 2-(6-(4-cyclopropyl-4H-1,2,4-triazol-3-yl)pyridin-2-yl)-1,2-dihydro-3H-benzo[4,5]thieno[2,3-c]pyrrol-3-one] was tested, and the pIC50 was greater than 6.00. Work on `COc1cc2c(s1)C(=O)N(c1cccc(-c3nncn3C3CC3)n1)C2` [Example 13, 5-(6-(4-cyclopropyl-4H-1,2,4-triazol-3-yl)pyridin-2-yl)-2-methoxy-4,5-dihydro-6H-thieno[2,3-c]pyrrol-6-one] yielded a pIC50 greater than 6.00. For `CC(C)n1cnnc1-c1cccc(N2Cc3ccsc3C2=O)n1` [Example 14, 5-(6-(4-isopropyl-4H-1,2,4-triazol-3-yl)pyridin-2-yl)-4,5-dihydro-6H-thieno[2,3-c]pyrrol-6-one], the pIC50 was greater than 6.00.
